From the supplement of paper PMC10307832

Experiments:
Assay in all cases: relative viability (nuclei count vs DMSO), 5 days (fraction); higher = more cells survive
Veliparib + Vorinostat = compound: C[C@]1(c2nc3c(C(N)=O)cccc3[nH]2)CCCN1 [Veliparib] + O=C(CCCCCCC(=O)Nc1ccccc1)NO [Vorinostat] (partner 1 µM)
Method in brief: (§1)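 Lung cancer cell lines, seeded in 1536-well plates, were treated the following day by pin tool with a single drug or with five library-drug doses (not always all listed) in √10 steps on top of a fixed anchor-drug dose. Cells were fixed and nuclei stained in one step after 5 days, and nuclei were counted. Relative viability is the nuclei count for treated wells divided by that for vehicle wells, reported as medians of duplicate plates.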

[1] = compound: COC1=CC=C(C=C1)CN2C=CC3=C2C=C(C=C3)C(=O)NO + COc1cc2c(Oc3ccc(NC(=O)C4(C(=O)Nc5ccc(F)cc5)CC4)cc3F)ccnc2cc1OCCCN1CCOCC1 [Foretinib] (partner 0.25 µM)
Method in brief: as §1

[2] = compound: COC1=CC=C(C=C1)CN2C=CC3=C2C=C(C=C3)C(=O)NO + O=C(CCCCCCC(=O)Nc1ccccc1)NO [Vorinostat] (partner 1 µM)
Method in brief: as §1

SW 1573
relative viability (Veliparib + Vorinostat; first compound 0.06325 µM): 0.596
relative viability (Veliparib + Vorinostat; first compound 0.2 µM): 0.67
relative viability (Veliparib + Vorinostat; first compound 0.6325 µM): 0.495
relative viability (Veliparib + Vorinostat; first compound 2 µM): 0.869
relative viability ([1]; first compound 0.253 µM): 0.877
relative viability ([1]; first compound 0.8 µM): 0.865
relative viability ([1]; first compound 2.53 µM): 0.751
relative viability ([1]; first compound 8 µM): 0.694
relative viability ([2]; first compound 0.253 µM): 0.76
relative viability ([2]; first compound 0.8 µM): 0.804
relative viability ([2]; first compound 2.53 µM): 0.818
relative viability ([2]; first compound 8 µM): 0.622
